Experimental data: patent US20230051589A1, “COMPOUNDS AND COMPOSITIONS FOR TREATING CONDITIONS ASSOCIATED WITH NLRP ACTIVITY” (Novartis AG, priority 2018, published 2023)
pIC50: −log10 of the molar value.

tested on: IL-1β production in PMA-differentiated THP-1 cells; assay: IL-1β production in PMA-differentiated THP-1 cells stimulated with gramicidin (hTHP-1 assay, 2% fetal bovine serum; Procedures 1-3); type: cell-based, human; settings: Homo sapiens, THP-1, hTHP-1 assay containing 2% fetal bovine serum, Table B2, class symbols; read-out: IC50
Procedure, shortened: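 IL-1β released into supernatants was read by HTRF after 2 h gramicidin (5 μM) challenge. Before challenge, compounds (3-fold dilutions, top 100 μM, 0.37% DMSO) were given 1 h on THP-1 cells differentiated with PMA (20 ng/ml, 16-18 h) and held in 2% FBS medium.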

| pIC50 | SMILES |
| --- | --- |
| 7.40 to 8.10 | CC(O)(CO)c1ncc(S(N)(=O)=NC(=O)Nc2c3c(cc4c2CCC4)CCC3)s1 (single isomer, unassigned) [Example 626] |
| 5.30 to 6.00 | NS(=O)(=NC(=O)Nc1c2c(cc3c1CCC3)CCC2)c1ccc(C2CCCN2)cc1 (single isomer, unassigned) [Example 648, (R,R) or (S,R)-N′-((1,2,3,5,6,7-hexahydro-s-indacen-4-yl)carbamoyl)-4-(pyrrolidin-2-yl) benzenesulfonimidamide] |

same assay, conditions: Homo sapiens, THP-1, hTHP-1 assay containing 2% fetal bovine serum, Table B2, given as bound; read-out: IC50

| pIC50 | SMILES |
| --- | --- |
| < 4.52 | CC(OC(F)F)c1ccc(S(N)(=O)=NC(=O)Nc2c3c(cc4c2CCC4)CCC3)cc1 (single isomer, unassigned) [Example 643] |
| < 4.52 | CC(C)(O)c1cnc(S(N)(=O)=NC(=O)Nc2c3c(cc4c2C(O)CC4)CCC3)s1 (single isomer, unassigned) [Example 654, (S,R) or (S,S)-N′-((-3-hydroxy-1,2,3,5,6,7-hexahydro-s-indacen-4-yl)carbamoyl)-5-(2-hydroxypropan-2-yl)thiazole-2-sulfonimidamide] |
| < 4.52 | CC(C)(O)c1cnc(S(N)(=O)=NC(=O)Nc2c3c(cc4c2CCC4O)CCC3)s1 (single isomer, unassigned) [Example 655, (S,R) or (S,S)-N′-((1-hydroxy-1,2,3,5,6,7-hexahydro-5-indacen-4-yl)carbamoyl)-5-(2-hydroxypropan-2-yl)thiazole-2-sulfonimidamide] |

same assay, conditions: hTHP-1 assay containing 2% fetal bovine serum, Table B2, class symbols; read-out: IC50

| pIC50 | SMILES |
| --- | --- |
| 6.00 to 6.70 | NS(=O)(=NC(=O)Nc1c2c(cc3c1CCC3)CCC2)c1ccc(C2CCNC2)cc1F (single isomer, unassigned) [Example 624, (R,R) or (S,R)-2-fluoro-N′-((1,2,3,5,6,7-hexahydro-s-indacen-4-yl)carbamoyl)-4-pyrrolidin-3-yl) benzenesulfonimidamide] |
| 6.00 to 6.70 | NS(=O)(=NC(=O)Nc1c2c(cc3c1CCC3)CCC2)c1ccc(C2CCNC2)cc1F (single isomer, unassigned) [Example 625, (S,R) or (R,R)-2-fluoro-N′-((1,2,3,5,6,7-hexahydro-s-indacen-4-yl)carbamoyl)-4-pyrrolidin-3-yl) benzenesulfonimidamide] |
| 7.40 to 8.10 | CC(O)(CO)c1cc(F)c(S(N)(=O)=NC(=O)Nc2c3c(c(C#N)c4c2CCC4)CCC3)s1 (single isomer, unassigned) [Example 630, (R,R) or (S,R)-N′-((8-cyano-1,2,3,5,6,7-hexahydro-s-indacen-4-yl)carbamoyl)-5-(1,2-dihydroxypropan-2-yl)-3-fluorothiophene-2-sulfonimidamide] |
| 4.52 to 5.30 | CC(O)(CO)c1cc(F)c(S(N)(=O)=NC(=O)Nc2c3c(c(C#N)c4c2CCC4)CCC3)s1 (single isomer, unassigned) [Example 633] |
| 6.00 to 6.70 | CC(O)(CO)c1ncc(S(N)(=O)=NC(=O)Nc2c3c(c(C#N)c4c2CCC4)CCC3)s1 (single isomer, unassigned) [Example 634] |
| 6.70 to 7.40 | CC(O)(CO)c1ncc(S(N)(=O)=NC(=O)Nc2c3c(c(C#N)c4c2CCC4)CCC3)s1 (single isomer, unassigned) [Example 636, (S,R) or (R,R)-N′-((8-cyano-1,2,3,5,6,7-hexahydro-s-indacen-4-yl)carbamoyl)-2-(1,2-dihydroxypropan-2-yl)thiazole-5-sulfonimidamide] |
| 4.52 to 5.30 | NS(=O)(=NC(=O)Nc1c2c(cc3c1CCC3)CCC2)c1ccc(C2CCCN2)cc1 (single isomer, unassigned) [Example 650, (R,S) or (S,S)-N′-((1,2,3,5,6,7-hexahydro-s-indacen-4-yl)carbamoyl)-4-(pyrrolidin-2-yl) benzenesulfonimidamide] |
| 4.52 to 5.30 | CC(C)(O)c1cnc(S(N)(=O)=NC(=O)Nc2c3c(cc4c2C(O)CC4)CCC3)s1 (single isomer, unassigned) [Example 653, (S,S) or (S,R)-N′-((3-hydroxy-1,2,3,5,6,7-hexahydro-s-indacen-4-yl)carbamoyl)-5-(2-hydroxypropan-2-yl)thiazole-2-sulfonimidamide] |
| 5.30 to 6.00 | CC(C)(O)c1cnc(S(N)(=O)=NC(=O)Nc2c3c(cc4c2CCC4O)CCC3)s1 (single isomer, unassigned) [Example 657, (R,R) or (R,S)-N′-((1-hydroxy-1,2,3,5,6,7-hexahydro-5-indacen-4-yl)carbamoyl)-5-(2-hydroxypropan-2-yl)thiazole-2-sulfonimidamide] |
| 4.52 to 5.30 | CC(C)(O)c1cnc(S(N)(=O)=NC(=O)Nc2c3c(cc4c2CCC4O)CCC3)s1 (single isomer, unassigned) [Example 658, (R,S) or (R,R)-N′-((1-hydroxy-1,2,3,5,6,7-hexahydro-5-indacen-4-yl)carbamoyl)-5-(2-hydroxypropan-2-yl)thiazole-2-sulfonimidamide] |
| 4.52 to 5.30 | CN(C)C(c1ccc(S(N)(=O)=NC(=O)Nc2c3c(cc4c2CCC4)CCC3)cc1)C1CC1 (single isomer, unassigned) [Example 659] |

Second part, the molecule before the results:

| SMILES | pIC50 |
| --- | --- |
| CC(O)(CO)c1ncc(S(N)(=O)=NC(=O)Nc2c3c(cc4c2CCC4)CCC3)s1 (single isomer, unassigned) [Example 627, (R,S) or (S,S)-1,2-dihydroxypropan-2-yl)-N′-((l,2,3,5,6,7-hexahydro-s-indacen-4-yl) carbamoyl) thiazole-5-sulfonimidamide] | 6.00 to 6.70 |
| CC(O)(CO)c1ncc(S(N)(=O)=NC(=O)Nc2c3c(cc4c2CCC4)CCC3)s1 (single isomer, unassigned) [Example 628, (S,S) or (R,S)-1,2-dihydroxypropan-2-yl)-N′-((l,2,3,5,6,7-hexahydro-s-indacen-4-yl) carbamoyl) thiazole-5-sulfonimidamide] | 6.00 to 6.70 |
| CC(O)(CO)c1cc(F)c(S(N)(=O)=NC(=O)Nc2c3c(c(C#N)c4c2CCC4)CCC3)s1 (single isomer, unassigned) [Example 629, (S,R) or (R,R)-N′-((8-cyano-1,2,3,5,6,7-hexahydro-s-indacen-4-yl)carbamoyl)-5-(1,2-dihydroxypropan-2-yl)-3-fluorothiophene-2-sulfonimidamide] | 6.70 to 7.40 |
| CC(O)(CO)c1cc(F)c(S(N)(=O)=NC(=O)Nc2c3c(c(C#N)c4c2CCC4)CCC3)s1 (single isomer, unassigned) [Example 632] | 4.52 to 5.30 |
| CC(O)(CO)c1ncc(S(N)(=O)=NC(=O)Nc2c3c(c(C#N)c4c2CCC4)CCC3)s1 (single isomer, unassigned) [Example 637, (R,R) or (S,R)-N′-((8-cyano-1,2,3,5,6,7-hexahydro-s-indacen-4-yl)carbamoyl)-2-(1,2-dihydroxypropan-2-yl)thiazole-5-sulfonimidamide] | 6.00 to 6.70 |
| CC(OC(F)F)c1ccc(S(N)(=O)=NC(=O)Nc2c3c(cc4c2CCC4)CCC3)cc1 (single isomer, unassigned) [Example 638] | 5.30 to 6.00 |
| CC(OC(F)F)c1ccc(S(N)(=O)=NC(=O)Nc2c3c(cc4c2CCC4)CCC3)cc1 (single isomer, unassigned) [Example 640] | 5.30 to 6.00 |
| CC(OC(F)F)c1ccc(S(N)(=O)=NC(=O)Nc2c3c(cc4c2CCC4)CCC3)cc1 (single isomer, unassigned) [Example 641] | 5.30 to 6.00 |
| CC(OC(F)F)c1ccc(S(N)(=O)=NC(=O)Nc2c3c(cc4c2CCC4)CCC3)cc1 (single isomer, unassigned) [Example 642] | 4.52 to 5.30 |
| CN(C)C(c1ccc(S(N)(=O)=NC(=O)Nc2c3c(cc4c2CCC4)CCC3)cc1)C(F)F (single isomer, unassigned) [Example 644, (R,R) or (S,R)-4-(-1-(dimethylamino)-2,2-difluoroethyl)-N′-((1,2,3,5,6,7-hexahydro-s-indacen-4-yl)carbamoyl) benzenesulfonimidamide] | 6.00 to 6.70 |
| CN(C)C(c1ccc(S(N)(=O)=NC(=O)Nc2c3c(cc4c2CCC4)CCC3)cc1)C(F)F (single isomer, unassigned) [Example 647, (S,R) or (R,R)-4-(1-(dimethylamino)-2,2-difluoroethyl)-N′-((1,2,3,5,6,7-hexahydro-s-indacen-4-yl)carbamoyl) benzenesulfonimidamide] | 6.00 to 6.70 |
| CC(C)(O)c1cnc(S(N)(=O)=NC(=O)Nc2c3c(cc4c2C(O)CC4)CCC3)s1 (single isomer, unassigned) [Example 651, (R,S) or (R,R)-N′-((3-hydroxy-1,2,3,5,6,7-hexahydro-s-indacen-4-yl)carbamoyl)-5-(2-hydroxypropan-2-yl)thiazole-2-sulfonimidamide] | 5.30 to 6.00 |
| CC(C)(O)c1cnc(S(N)(=O)=NC(=O)Nc2c3c(cc4c2C(O)CC4)CCC3)s1 (single isomer, unassigned) [Example 652, (R,R) or (R,S)-N′-((3-hydroxy-1,2,3,5,6,7-hexahydro-s-indacen-4-yl)carbamoyl)-5-(2-hydroxypropan-2-yl)thiazole-2-sulfonimidamide] | 5.30 to 6.00 |

same assay, conditions: hTHP-1 assay containing 2% fetal bovine serum, Table B2, given as bound; read-out: IC50

| pIC50 | SMILES |
| --- | --- |
| < 4.52 | CN(C)C(c1ccc(S(N)(=O)=NC(=O)Nc2c3c(cc4c2CCC4)CCC3)cc1)C(F)F (single isomer, unassigned) [Example 645, (S,S) or (R,S)-4-(-1-(dimethylamino)-2,2-difluoroethyl)-N′-((1,2,3,5,6,7-hexahydro-s-indacen-4-yl)carbamoyl) benzenesulfonimidamide] |
| < 4.52 | CN(C)C(c1ccc(S(N)(=O)=NC(=O)Nc2c3c(cc4c2CCC4)CCC3)cc1)C(F)F (single isomer, unassigned) [Example 646, (R,S) or (S,S)-4-(-1-(dimethylamino)-2,2-difluoroethyl)-N′-((1,2,3,5,6,7-hexahydro-s-indacen-4-yl)carbamoyl) benzenesulfonimidamide] |
| < 4.52 | CC(C)(O)c1cnc(S(N)(=O)=NC(=O)Nc2c3c(cc4c2CCC4O)CCC3)s1 (single isomer, unassigned) [Example 656, (S,S) or (S,R)-N′-((1-hydroxy-1,2,3,5,6,7-hexahydro-5-indacen-4-yl)carbamoyl)-5-(2-hydroxypropan-2-yl)thiazole-2-sulfonimidamide] |
